Experimental data taken from patent publication US5223421A, “Identification of methionine Nα-acetyltransferase” (The General Hospital Corporation, priority 1990, dated 1993).
“Also recorded” adds a separate entry of the source. Where two headings read alike, the source gives them in different places.

What was measured:
[1] = system: methionine N^α -acetyltransferase from S. cerevisiae; type: biochemical, Saccharomyces cerevisiae; details: for effect of ion or salt on M-N^α AT activity: concentration not given; for Enzyme Activity (%): 5 min room temperature, 50 mM HEPES pH 7.4, 1 mM DTT, substrate PAI (N=3)
Description: (§1) N^α -acetyltransferase activity was determined as previously described [Lee et al., J. Biol. Chem. 263:14948-14955 (1988)]. Aliquots of the lysate or chromatographic fractions were added to 1.5 ml Eppendorf tubes containing a reaction mixture of 50 mM HEPES, pH 7.4, 150 mM KCl, 1 mM DTT, 25 μM [^3 H] acetyl coenzyme A (0.5 μCi) and 50 μM synthetic peptide with an adjusted final volume of 100 μl. The assay mixture was incubated at 30° C. for 30 min. The reaction was stopped by adding 17 μl of 0.5M acetic acid and chilled in an ice bath. The reaction samples were filtered through SP membrane discs (Cuno) (previously pre-swollen in 0.5M acetic acid), and then washed three times with 1 ml of 0.5M acetic acid on a Millipore 1225 sampling manifold. The partially dried membranes were placed in scintillation cocktail and counted with a Beckman LS 3801 scintillation counter.
Yeast methionine acetyltransferase was incubated in the presence of various divalent cations at a room temperature for 5 min in 50 mM HEPES, pH 7.4 containing 1 mM DTT. The enzyme activity was determined under standard assay conditions using PAI (N=3), as described above.

yeast N^α AT = target: T1, yeast N^α AT (Saccharomyces cerevisiae, UniProt P07347+P12945); experiment: Effect of ions and reagents on yeast N^α AT (comparison in the discussion); type: biochemical
T1 sequence (P12945 2-854 limits assumed): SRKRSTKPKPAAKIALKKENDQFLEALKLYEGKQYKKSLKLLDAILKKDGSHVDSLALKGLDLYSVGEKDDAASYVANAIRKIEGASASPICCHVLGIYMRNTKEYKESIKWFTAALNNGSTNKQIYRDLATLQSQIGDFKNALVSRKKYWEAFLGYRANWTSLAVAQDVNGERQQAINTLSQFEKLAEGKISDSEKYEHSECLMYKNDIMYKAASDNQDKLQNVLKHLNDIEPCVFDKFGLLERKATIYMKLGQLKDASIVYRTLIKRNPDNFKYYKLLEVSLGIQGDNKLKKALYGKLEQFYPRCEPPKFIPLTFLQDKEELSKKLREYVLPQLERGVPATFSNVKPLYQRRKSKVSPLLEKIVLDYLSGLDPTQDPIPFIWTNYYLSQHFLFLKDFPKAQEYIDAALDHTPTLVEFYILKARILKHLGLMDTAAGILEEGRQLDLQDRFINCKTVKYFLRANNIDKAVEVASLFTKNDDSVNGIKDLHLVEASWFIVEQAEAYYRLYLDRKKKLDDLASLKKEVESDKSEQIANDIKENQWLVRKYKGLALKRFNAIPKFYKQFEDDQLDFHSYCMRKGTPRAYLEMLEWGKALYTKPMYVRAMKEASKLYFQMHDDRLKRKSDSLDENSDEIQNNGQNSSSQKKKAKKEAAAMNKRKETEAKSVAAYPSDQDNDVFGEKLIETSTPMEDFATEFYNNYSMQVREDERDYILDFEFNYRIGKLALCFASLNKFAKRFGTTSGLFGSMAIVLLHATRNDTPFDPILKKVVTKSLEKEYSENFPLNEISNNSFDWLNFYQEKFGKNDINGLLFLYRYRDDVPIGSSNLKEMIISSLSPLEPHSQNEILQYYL
T1 sequence (P07347 1-238): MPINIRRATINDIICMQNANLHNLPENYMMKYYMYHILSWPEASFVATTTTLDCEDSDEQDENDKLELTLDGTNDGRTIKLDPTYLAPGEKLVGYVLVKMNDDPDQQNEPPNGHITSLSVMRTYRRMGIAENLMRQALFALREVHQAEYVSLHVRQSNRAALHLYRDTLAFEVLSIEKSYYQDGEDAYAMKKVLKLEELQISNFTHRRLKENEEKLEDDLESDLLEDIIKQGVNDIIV

[2] = system: methionine N^α -acetyltransferase from S. cerevisiae; experiment: Effect of protein modification reagents on enzyme activity; type: biochemical, Saccharomyces cerevisiae; details: for Enzyme Activity (%): 30° C. 15 min, then dialyzed, substrate PAI (N=3)
Description: as §1, with “counter. One unit of activity was defined as the amount of enzyme able to transfer 1 pmol of [^3 H] acetyl group from [^3 H] acetyl coenzyme A to synthetic peptide per min under standard enzyme assay conditions defined above.” for “counter.”
In order to determine the possible catalytic role for different types of amino acid residues in the enzyme, various chemical modifications were carried out (Table 10). Yeast methionine acetyltransferase was incubated with each reagent at 30° C. for 15 min, dialyzed against 50 mM HEPES, pH 7.4, 150 mM, 1 mM DTT at 4° C. for 3 to 4 hr. The enzyme activity was determined under standard assay conditions using PAI (N=3), assayed as described above.

Structure (SMILES): O=S(=O)([O-])[O-].[Cu+2] [CuSO4]
- effect of ion or salt on M-N^α AT activity ([1]; listed as Cu^2+): pronounced and concentration-dependent inhibition; also recorded: inhibited markedly
- Enzyme Activity (%) ([1]; salt 0.1 mM): 65%
- Enzyme Activity (%) ([1]; salt 1 mM): 0%
- effect of ion on N^α AT activity (yeast N^α AT): inhibited markedly

Structure (SMILES): NC(=O)CI [IAM, iodoacetamide]
- effect of reagent on M-N^α AT activity ([2]; 1 mM): without effect
- effect of reagent on M-N^α AT activity ([2]; 10 mM): partial inactivation
- effect of reagent on M-N^α AT activity ([2]; concentration not given): inability
- Enzyme Activity (%) ([2]; reagent 1.0 mM): 100%
- Enzyme Activity (%) ([2]; reagent 10.0 mM): 86%
- effect of reagent on N^α AT activity (yeast N^α AT): inability

Structure (SMILES): CCN1C(=O)C=CC1=O [NEM, N-ethylmaleimide]
- effect of reagent on M-N^α AT activity ([2]; 0.5 mM): partial inactivation
- effect of reagent on M-N^α AT activity ([2]; concentration not given): inability
- Enzyme Activity (%) ([2]; reagent 0.5 mM): 77%
- Enzyme Activity (%) ([2]; reagent 5.0 mM): 20%
- effect of reagent on N^α AT activity (yeast N^α AT): inability

Structure (SMILES): OC(CS)C(O)CS (centres unmarked) [DTT]
- effect of reagent on M-N^α AT activity ([2]; concentration not given): did not affect the enzyme activity; also recorded: inability
- Enzyme Activity (%) ([2]; reagent 10.0 mM): 95%
- effect of reagent on N^α AT activity (yeast N^α AT): inability

Structure (SMILES): O=S(=O)([O-])[O-].[Zn+2] [ZnSO4]
- effect of ion or salt on M-N^α AT activity ([1]; listed as Zn^2+): pronounced and concentration-dependent inhibition; also recorded: inhibited markedly
- Enzyme Activity (%) ([1]; salt 0.01 mM): 95%
- Enzyme Activity (%) ([1]; salt 0.1 mM): 52%
- Enzyme Activity (%) ([1]; salt 1 mM): 0%
- effect of ion on N^α AT activity (yeast N^α AT): inhibited markedly

Structure (SMILES): Cl [chloride ion]
- effect of ion or salt on M-N^α AT activity [1]: neither M-N^α AT nor N^α AT were activated
- effect of ion on N^α AT activity (yeast N^α AT): neither M-N^α AT nor N^α AT were activated

Structure (SMILES): OCCS [2-mercaptoethanol]
- effect of reagent on M-N^α AT activity ([2]; concentration not given): did not affect the enzyme activity
- effect of reagent on M-N^α AT activity ([2]; concentration not given, listed as β-mercaptoethanol): inability
- Enzyme Activity (%) ([2]; reagent 10.0 mM): 96%
- effect of reagent on N^α AT activity (yeast N^α AT): inability
